Like-named read-outs stand apart in the source and are kept apart here. Where only a bound is given, the exact number is not on record here.

For 10 molecules, IC50 results are on record in patent US20170114049A1, “2,5-DISUBSTITUTED CYCLOPENTANE CARBOXYLIC ACIDS FOR THE TREATMENT OF RESPIRATORY TRACT DISEASES” (BAYER PHARMA AKTIENGESELLSCHAFT, priority 2014, published 2017).

Holding throughout (format): biochemical
For one experiment, the target named is T1, MMP-9 (Homo sapiens, UniProt P14780).
T1 construct: purchased R&D Systems 911-MP
The experiment in a line: In vitro MMP-9 inhibition test.

In experiment [1] the target is T2, human macrophage elastase (HME/hMMP-12) (Homo sapiens, UniProt P39900).
T2 construct: 0.5 nM HME; purchased R&D Systems 917-MP
The experiment in a line: In vitro HME inhibition test (standard or high-sensitivity). The protocol: The potency of the compounds according to the invention with respect to HME (MMP-12) is determined in an in vitro inhibition test. The HME-mediated amidolytic cleavage of a suitable peptide substrate leads to an increase in fluorescent light therein. The signal intensity of the fluorescent light is directly proportional to the enzyme activity. The active concentration of a test compound at which half the enzyme is inhibited (50% signal intensity of the fluorescent light) is reported as the IC50 value.
In a 384 hole microtiter plate, in a total test volume of 41 μl, the test buffer (0.1 M HEPES pH 7.4, 0.15 M NaCl, 0.03 M CaCl2, 0.004 mM ZnCl2, 0.02 M EDTA, 0.005% Brij®), the enzyme (0.5 nM HME; from R&D Systems, 917-MP, autocatalytic activation according to the manufacturer's instructions) and the intramolecularly quenched substrate [5 μM Mca-Pro-Leu-Gly-Leu-Glu-Glu-Ala-Dap(Dnp)-NH2; Bachem, M-2670] are incubated in the absence and presence of the test substance (as a solution in DMSO) at 37° C. for two hours. The fluorescence intensity of the test mixtures is measured (excitation […], emission 393 nm). The IC50 values are ascertained by plotting the fluorescent light intensity against the active ingredient concentration.
In this case, an enzyme concentration ten times lower is used (final concentration, for example, 0.05 nM) in order to achieve an elevated test sensitivity. The incubation period chosen for the test is correspondingly longer (for example 16 hours).

The target in another experiment is T3, mouse MMP-12 (Mus musculus, UniProt P34960).
T3 construct: purchased R&D Systems 3467-MP
The experiment in a line: In vitro mouse MMP-12 inhibition test (standard or high-sensitivity). The text has this: (§1) The MMP-mediated amidolytic cleavage of a suitable peptide substrate leads to an increase in fluorescent light here too. The signal intensity of the fluorescent light is directly proportional to the enzyme activity. The active concentration of a test compound at which half the enzyme is inhibited (50% signal intensity of the fluorescent light) is reported as the […].
Recombinant mouse MMP-12 (from R&D Systems, 3467-MP) is autocatalytically activated in accordance with the manufacturer's instructions. 1 μl of the test compound to be analysed (as a solution in DMSO, suitable concentrations, for example, 1 nM to 30 μM) is pipetted into 24 μl of activated enzyme (final concentration, for example, 1 nM) in reaction buffer (50 mM Tris/HCl pH 7.5, 10 mM CaCl2, 150 mM NaCl, 0.05% Brij®-35) in a white 384-hole microtiter plate (MTP). The enzymatic reaction is started by adding the intramolecularly quenched Mca-Lys-Pro-Leu-Gly-Leu-Dpa(Dnp)-Ala-Arg-NH2 substrate (final concentration, for example, 5 μM; R&D Systems, ES-010), so as to result in a total test volume of 50 μl. The course of the MMP-12 reaction is measured by measuring the fluorescence intensity (excitation 320 nm, emission 410 nm) over a suitable period of time (for example over 120 min at a temperature of 32° C.).
In this case, an enzyme concentration ten times lower is used (final concentration, for example, 0.1 nM) in order to achieve an elevated test sensitivity. The incubation period chosen for the test is correspondingly longer (for example 16 hours).

In the next experiment the target is T4, MMP-1 (Homo sapiens, UniProt P03956).
T4 construct: purchased R&D Systems 901-MP
T4 sequence (P03956 100-469): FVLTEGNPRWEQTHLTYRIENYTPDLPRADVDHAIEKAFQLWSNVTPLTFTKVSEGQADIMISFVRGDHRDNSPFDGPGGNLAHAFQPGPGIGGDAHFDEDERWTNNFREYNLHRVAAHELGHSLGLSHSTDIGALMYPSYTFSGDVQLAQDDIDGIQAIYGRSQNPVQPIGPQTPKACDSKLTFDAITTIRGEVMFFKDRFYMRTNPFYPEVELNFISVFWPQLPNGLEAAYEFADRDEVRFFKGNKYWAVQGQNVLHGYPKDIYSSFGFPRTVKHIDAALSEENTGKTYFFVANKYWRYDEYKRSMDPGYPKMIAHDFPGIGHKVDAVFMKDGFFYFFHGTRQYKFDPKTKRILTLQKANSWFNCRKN
The experiment in a line: In vitro MMP-1 inhibition test.
Excerpt: as §1
Recombinant MMP-1 (from R&D Systems, 901-MP) is chemically activated in accordance with the manufacturer's instructions using APMA. 1 μl of the test compound to be analysed (as a solution in DMSO, suitable concentrations, for example, 1 nM to 30 μM) is pipetted into 24 μl of activated enzyme (final concentration, for example, 2 nM) in reaction buffer (50 mM Tris/HCl pH 7.5, 10 mM CaCl2, 150 mM NaCl, 0.05% Brij®-35) in a white 384-hole microtiter plate (MTP). The enzymatic reaction is started by adding the intramolecularly quenched Mca-Pro-Leu-Gly-Leu-Dpa(Dnp)-Ala-Arg-NH2 substrate (final concentration, for example, 10 μM; R&D Systems, ES-001), so as to result in a total test volume of 50 μl. The course of the MMP-1 reaction is measured by measuring the fluorescence intensity (excitation 320 nm, emission 410 nm) over a suitable period of time (for example over 120 min at a temperature of 32° C.).

Another experiment deals with T5, mouse MMP-8 (Mus musculus, UniProt O70138).
T5 construct: purchased R&D Systems 2904-MP
The experiment in a line: In vitro mouse MMP-8 inhibition test.

The target in the next experiment is T6, mouse MMP-3 (Mus musculus, UniProt P28862).
T6 construct: purchased R&D Systems 548-MP
The experiment in a line: In vitro mouse MMP-3 inhibition test.

Setting [2] is: absence of serum albumin (BSA), read-out: HME IC50 (−BSA).
Setting [3] is: standard or high-sensitivity HME inhibition test, read-out: HME/hMMP-12 IC50.

T1 sequence (P14780 107-707 limits assumed): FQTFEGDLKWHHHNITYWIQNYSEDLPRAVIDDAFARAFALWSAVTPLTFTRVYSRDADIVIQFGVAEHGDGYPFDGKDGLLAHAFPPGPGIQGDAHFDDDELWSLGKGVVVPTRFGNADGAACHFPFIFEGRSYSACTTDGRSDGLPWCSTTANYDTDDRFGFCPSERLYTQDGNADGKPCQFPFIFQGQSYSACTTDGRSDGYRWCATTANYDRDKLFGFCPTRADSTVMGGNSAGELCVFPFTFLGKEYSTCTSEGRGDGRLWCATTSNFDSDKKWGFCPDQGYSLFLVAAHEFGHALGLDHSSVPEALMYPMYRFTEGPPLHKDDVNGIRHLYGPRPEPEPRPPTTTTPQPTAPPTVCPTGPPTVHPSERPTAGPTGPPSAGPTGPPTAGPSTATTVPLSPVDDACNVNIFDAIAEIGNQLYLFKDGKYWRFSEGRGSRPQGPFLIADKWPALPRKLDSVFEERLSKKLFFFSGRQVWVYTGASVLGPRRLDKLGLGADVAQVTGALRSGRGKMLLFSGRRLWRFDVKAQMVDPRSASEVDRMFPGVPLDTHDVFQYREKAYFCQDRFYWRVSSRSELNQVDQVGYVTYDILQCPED
T3 sequence (P34960 110-473): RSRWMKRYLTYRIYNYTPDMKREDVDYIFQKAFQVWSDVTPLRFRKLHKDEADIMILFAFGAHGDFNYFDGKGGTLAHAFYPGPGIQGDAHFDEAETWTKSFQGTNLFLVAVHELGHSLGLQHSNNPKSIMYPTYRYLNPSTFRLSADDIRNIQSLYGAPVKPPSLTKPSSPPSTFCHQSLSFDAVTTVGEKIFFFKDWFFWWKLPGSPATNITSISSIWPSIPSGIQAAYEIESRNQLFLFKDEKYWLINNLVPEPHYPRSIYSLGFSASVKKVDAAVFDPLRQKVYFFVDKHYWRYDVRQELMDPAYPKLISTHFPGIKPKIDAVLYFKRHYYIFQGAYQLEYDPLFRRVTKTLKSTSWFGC
T2 sequence (P39900 106-470): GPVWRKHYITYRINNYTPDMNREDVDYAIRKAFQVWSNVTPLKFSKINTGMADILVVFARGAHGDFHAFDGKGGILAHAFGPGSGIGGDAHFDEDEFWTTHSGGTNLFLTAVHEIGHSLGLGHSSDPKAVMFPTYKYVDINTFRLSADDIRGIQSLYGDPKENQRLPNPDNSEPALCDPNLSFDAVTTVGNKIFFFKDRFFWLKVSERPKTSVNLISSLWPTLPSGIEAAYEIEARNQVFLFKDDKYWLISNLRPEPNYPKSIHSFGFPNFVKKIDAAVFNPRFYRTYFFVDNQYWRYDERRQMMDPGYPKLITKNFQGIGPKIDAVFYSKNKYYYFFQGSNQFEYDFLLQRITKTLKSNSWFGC
T5 sequence (O70138 101-465): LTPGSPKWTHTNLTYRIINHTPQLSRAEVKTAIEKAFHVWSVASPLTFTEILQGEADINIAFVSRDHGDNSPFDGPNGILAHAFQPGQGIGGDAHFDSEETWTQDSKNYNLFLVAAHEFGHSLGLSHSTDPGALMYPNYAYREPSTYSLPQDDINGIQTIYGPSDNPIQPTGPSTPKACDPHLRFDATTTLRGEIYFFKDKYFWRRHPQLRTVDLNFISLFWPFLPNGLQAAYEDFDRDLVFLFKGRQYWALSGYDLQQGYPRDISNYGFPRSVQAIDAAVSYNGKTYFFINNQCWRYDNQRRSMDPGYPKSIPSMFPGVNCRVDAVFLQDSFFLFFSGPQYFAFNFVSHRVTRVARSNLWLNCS
T6 sequence (P28862 100-477): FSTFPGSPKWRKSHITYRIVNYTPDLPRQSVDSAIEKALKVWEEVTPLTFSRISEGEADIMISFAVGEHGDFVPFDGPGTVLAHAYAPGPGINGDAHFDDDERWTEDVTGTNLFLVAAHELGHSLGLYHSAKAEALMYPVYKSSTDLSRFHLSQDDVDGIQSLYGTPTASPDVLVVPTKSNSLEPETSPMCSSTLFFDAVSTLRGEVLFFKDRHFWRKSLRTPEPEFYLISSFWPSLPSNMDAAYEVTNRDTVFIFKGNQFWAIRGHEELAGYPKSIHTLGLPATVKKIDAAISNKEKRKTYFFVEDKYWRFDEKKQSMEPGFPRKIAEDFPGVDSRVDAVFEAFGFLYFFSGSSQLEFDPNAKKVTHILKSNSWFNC

For `O=C(O)[C@@H]1[C@@H](Cn2nnc3ccccc3c2=O)CC[C@H]1C(=O)c1ccc(OCCC2CCOCC2)cc1` (single isomer, unassigned) [Example 5, (+)-(1RS,2SR,5RS)-2-[(4-Oxo-1,2,3-benzotriazin-3(4H)-yl)methyl]-5-{4-[2-(tetrahydro-2H-pyran-4-yl)ethoxy]benzoyl}cyclopentanecarboxylic acid], the IC50 is 460 nM against MMP-9; 0.085 nM in experiment [1] (setting [2]); 0.085 nM in experiment [1] (setting [3]); 0.67 nM against mouse MMP-12; > 40000 nM on MMP-1; 54 nM on mouse MMP-8. The molecule further registered an IC50 at mouse MMP-3 of 270 nM.
With `O=C(O)[C@H]1[C@H](Cn2nnc3ccc(C(F)(F)F)cc3c2=O)CC[C@@H]1C(=O)c1ccc(OCC2CCOCC2)cc1` (racemic) [Example 7, (+/−)-(1RS,2SR,5RS)-2-{[4-Oxo-6-(trifluoromethyl)-1,2,3-benzotriazin-3(4H)-yl]methyl}-5-[4-(tetrahydro-2H-pyran-4-ylmethoxy)benzoyl]cyclopentanecarboxylic acid], the IC50 came out at 120 nM against MMP-9, 0.031 nM in experiment [1] (setting [3]) and 6500 nM on MMP-1.
Turning to `O=C(O)[C@H]1[C@H](Cn2nnc3ccc(C(F)(F)F)cc3c2=O)CC[C@@H]1C(=O)c1ccc(OCCC2CCOCC2)cc1` (stereo in doubt) [Example 10, (+/−)-(1RS ,2S R,5RS)-2-{[4-Oxo-6-(trifluoromethyl)-1,2,3-benzotriazin-3(4H)-yl]methyl}-5-{4-[2-(tetrahydro-2H-pyran-4-yl)ethoxy]benzoyl}cyclopentanecarboxylic acid], the IC50 against MMP-9 is 310 nM; in experiment [1] (setting [3]), 0.021 nM; at mouse MMP-12, 2.8 nM; against MMP-1, 8800 nM; against mouse MMP-8 it was 14 nM; against mouse MMP-3, 120 nM.
As to `Cc1ccc2nnn(C[C@@H]3CC[C@H](C(=O)c4ccc(OCCC5CCOCC5)cc4)[C@H]3C(=O)O)c(=O)c2c1` (racemic) [Example 19, (+/−)-(1RS,2SR,5RS)-2-[(6-Methyl-4-oxo-1,2,3-benzotriazin-3(4H)-yl)methyl]-5-{4-[2-(letrahydro-2H-pyran-4-yl)ethoxy]benzoyl}cyclopentanecarboxylic acid], the IC50 at MMP-9 is 960 nM; in experiment [1] (setting [2]), 0.12 nM; in experiment [1] (setting [3]), 0.12 nM; against mouse MMP-12 it was 7.6 nM; at MMP-1, > 40000 nM; against mouse MMP-8, 150 nM. In addition, at mouse MMP-3, the IC50 worked out at 3100 nM.
On to `O=C(O)[C@@H]1[C@@H](Cn2nnc3ccccc3c2=O)CC[C@H]1C(=O)c1ccc(OCC2CCOCC2)cc1` (stereo in doubt) [Example 2, (+)-(1RS,2SR,5RS)-2-[(4-Oxo-1,2,3-benzotriazin-3(4H)-yl)methyl]-5-[4-(tetrahydro-2H-pyran-4-ylmethoxy)benzoyl]cyclopentanecarboxylic acid], for which the IC50 was found to be 360 nM against MMP-9; 0.071 nM in experiment [1] (setting [2]); 0.071 nM in experiment [1] (setting [3]); 0.85 nM on mouse MMP-12; 10000 nM against MMP-1; 21 nM against mouse MMP-8. Besides, the IC50 on mouse MMP-3 came to 710 nM.
As to “(+)-(1RS,2SR,5RS)-2-{[4-Oxo-6-(trifluoromethyl)-1,2,3-benzotriazin-3(4H)-yl]methyl}-5-[4-(tetra-hydro-2H-pyran-4-ylmethoxy)benzoyl]cyclopentanecarboxylic acid [Example 8]”, the IC50 was 55 nM against MMP-9, 0.016 nM in experiment [1] (setting [2]), 0.016 nM in experiment [1] (setting [3]) and 1800 nM at MMP-1.
Consider `Cc1ccc2nnn(C[C@H]3CC[C@@H](C(=O)c4ccc(OCCC5CCOCC5)cc4)[C@@H]3C(=O)O)c(=O)c2c1` (single isomer, unassigned) [Example 20, (+)-(1RS,2SR,5RS)-2-[(6-Methyl-4-oxo-1,2,3-benzotriazin-3(4H)-yl)methyl]-5-{4-[2-(tetrahydro-2H-pyran-4-yl)ethoxy]benzoyl}cyclopentanecarboxylic acid], for which the IC50 against MMP-9 is 370 nM; in experiment [1] (setting [2]), 0.053 nM; in experiment [1] (setting [3]) it was 0.053 nM; against mouse MMP-12, 1.7 nM; against MMP-1, > 40000 nM; against mouse MMP-8 it was 46 nM. For the same molecule, on mouse MMP-3, the IC50 was found to be 670 nM.
For the molecule `O=C(O)[C@H]1[C@H](Cn2nnc3ccccc3c2=O)CC[C@@H]1C(=O)c1ccc(OCCC2CCOCC2)cc1` (stereo in doubt) [Example 4, (+/−)-(1RS,2SR,5RS)-2-[(4-Oxo-1,2,3-benzotriazin-3(4H)-yl)methyl]-5-{4-[2-(tetrahydro-2H-pyran-4-yl)ethoxy]benzoyl}cyclopentanecarboxylic acid], the IC50 is 5000 nM at MMP-9; 0.37 nM in experiment [1] (setting [2]); 0.37 nM in experiment [1] (setting [3]); 7.7 nM against mouse MMP-12; > 40000 nM against MMP-1; 370 nM against mouse MMP-8. This molecule also registered an IC50 on mouse MMP-3 of 4000 nM.
As to `O=C(O)[C@@H]1[C@@H](Cn2nnc3ccc(C(F)(F)F)cc3c2=O)CC[C@H]1C(=O)c1ccc(OCCC2CCOCC2)cc1` (single isomer, unassigned) [Example 11, (+)-(1RS,2SR,5RS)-2-{[4-Oxo-6-(trifluoromethyl)-1,2,3-benzotriazin-3(4H)-yl]methyl}-5-{4-[2-(tetrahydro-2H-pyran-4-yl)ethoxy]benzoyl}cyclopentanecarboxylic acid], the IC50 against MMP-9 was 660 nM; in experiment [1] (setting [2]), 0.19 nM; in experiment [1] (setting [3]) it was 0.19 nM; against mouse MMP-12, 9.4 nM; at MMP-1, 27000 nM; against mouse MMP-8, 34 nM. The molecule also yielded an IC50 on mouse MMP-3 of 620 nM.
As for `O=C(O)[C@@H]1[C@@H](Cn2nnc3ccc(C(F)(F)F)cc3c2=O)CC[C@H]1C(=O)c1ccc(SCC2CCOCC2)cc1` (single isomer, unassigned) [Example 15, (+)-(1RS,2SR,5RS)-2-{[4-Oxo-6-(trifluoromethyl)-1,2,3-benzotriazin-3(4H)-yl]methyl}-5-{4-[(tetrahydro-2H-pyran-4-ylmethyl)sulphanyl]benzoyl}cyclopentanecarboxylic acid], the IC50 stood at 150 nM against MMP-9, 0.026 nM in experiment [1] (setting [2]), 0.026 nM in experiment [1] (setting [3]) and 11000 nM at MMP-1.
